Source: patent US20120252741A1, “NOVEL SEMI-SYNTHETIC GLYCOPEPTIDES AS ANTIBACTERIAL AGENTS” (priority 2008, published 2012)
Converted amounts (≈) assume the structure as drawn. Read-outs that look alike come from different tables or passages of the source.

Key:
Type in all cases: cell-based
[1] = tested on: Streptococcus pneumoniae 1195 (ATCC 49619); experiment: MIC, broth microdilution, SPNE 1195; conditions: Streptococcus pneumoniae, ATCC49619, class symbols, read-out: MIC S PNE 1195
Method: (§1) Antibacterial activity in vitro is investigated by broth microdilution method in Meuller-Hinton broth as recommended by NCCLS. All strains tested are clinical isolates either sensitive or resistant to natural glycopeptides. MIC values were determined using the CLSI-recommended broth microdilution procedure (Clinical and Laboratory Standards Institute, Methods for Dilution Antimicrobial Susceptibility Tests for Bacteria That Grow Aerobically; Approved Standard-Seventh Edition.). Automated liquid handlers (Multidrop 384, Labsystems, Helsinki, Finland; Biomek 2000 and Multimek 96, Beckman Coulter, Fullerton Calif.) were used to conduct serial dilutions and liquid transfers. The MIC value for vancomycin is given for comparison. The abbreviations for organisms tested are as follow: SA 100—Staphylococcus aureus 100 (ATCC 29213); SA 757—Staphylococcus aureus 757 (MRSA); SA 2012—Staphylococcus aureus 2012 (VISA); SE 835—Staphylococcus epidermidis 835; SE 831—Staphylococcus epidermidis 831 (MRSE); EFc 101—Enterococcus faecalis 101 (ATCC 29212); EFc 848—Enterococcus faecalis 848 (VRE, Van A); EFcm 800—Enterococcus faecium 800; EFcm 752—Enterococcus faecium 752 (VRE, Van A); SPNE 1195—Streptococcus pneumoniae 1195 (ATCC 49619); SPY 712—Streptococcus pyogenes 712.

[2] = tested on: Enterococcus faecalis 848 (VRE, Van A); experiment: MIC, broth microdilution, EFc 848; conditions: VRE, Van A, class symbols, read-out: MIC E FC 848
Method: as §1

[3] = tested on: Staphylococcus epidermidis 835; experiment: MIC, broth microdilution, SE 835; conditions: Staphylococcus epidermidis, 835, class symbols, read-out: MIC SE 835
Method: as §1

[4] = tested on: Enterococcus faecalis 101 (ATCC 29212); experiment: MIC, broth microdilution, EFc 101; conditions: Enterococcus faecalis, ATCC29212, class symbols, read-out: MIC E FC 101
Method: as §1

[5] = tested on: Streptococcus pyogenes 712; experiment: MIC, broth microdilution, SPY 712; conditions: Streptococcus pyogenes, 712, class symbols, read-out: MIC S PYO 712
Method: as §1

[6] = tested on: Enterococcus faecium 800; experiment: MIC, broth microdilution, EFcm 800; conditions: Enterococcus faecium, 800, class symbols, read-out: MIC E FCM 800
Method: as §1

[7] = tested on: Staphylococcus epidermidis 831 (MRSE); experiment: MIC, broth microdilution, SE 831; conditions: Staphylococcus epidermidis, read-out: MIC SE 831
Method: as §1

[8] = tested on: Staphylococcus aureus 757 (MRSA); experiment: MIC, broth microdilution, SA 757; conditions: read-out: MIC SA 757
Method: as §1

[9] = tested on: Staphylococcus aureus 100 (ATCC 29213); experiment: MIC, broth microdilution, SA 100; conditions: Staphylococcus aureus, ATCC29213, class symbols, read-out: MIC SA 100
Method: as §1

[10] = tested on: Staphylococcus aureus 2012 (VISA); experiment: MIC, broth microdilution, SA 2012; conditions: read-out: MIC SA 2012
Method: as §1

[11] = tested on: Enterococcus faecium 752 (VRE, Van A); experiment: MIC, broth microdilution, EFcm 752; conditions: VRE, Van A, class symbols, read-out: MIC E FCM 752
Method: as §1

[12] = Table 2, in the presence of 0.002% Polysorbate 80
[13] = Table 2, in the presence of 0.002% Polysorbate 80, class symbols

Row | SMILES | MIC ([1]; Table 1) [µg/mL] | MIC ([2]; Table 1) [µg/mL] | MIC ([3]; Table 1) [µg/mL] | MIC ([4]; Table 1) [µg/mL] | MIC ([5]; Table 1) [µg/mL] | MIC ([6]; Table 1) [µg/mL] | MIC ([7]; Table 1, class symbols) [µg/mL] | MIC ([8]; Table 1, class symbols) [µg/mL] | MIC ([9]; Table 1) [µg/mL] | MIC ([10]; Table 1, class symbols) [µg/mL] | MIC ([11]; Table 1) [µg/mL] | MIC [2, 12] [µg/mL] | MIC [3, 12] [µg/mL] | MIC [4, 12] [µg/mL] | MIC [5, 12] [µg/mL] | MIC [6, 12] [µg/mL] | MIC [7, 13] [µg/mL] | MIC [8, 13] [µg/mL] | MIC [9, 12] [µg/mL] | MIC [10, 13] [µg/mL] | also measured
1 | CCCCCCOc1ccc(S(=O)(=O)NC(=O)C[C@@H]2NC(=O)[C@H](NC(=O)[C@@H](CC(C)C)NC)[C@H](O)c3ccc(c(Cl)c3)Oc3cc4cc(c3O[C@@H]3O[C@H](CO)[C@@H](O)[C@H](O)[C@H]3O)Oc3ccc(cc3Cl)[C@@H](O)[C@@H]3NC(=O)[C@H](NC(=O)[C@@H]4NC2=O)c2ccc(O)c(c2)-c2c(O)cc(O)cc2[C@@H](C(=O)NC2C4CC5CC(C4)CC2C5)NC3=O)cc1 (stereo partly drawn) [Compound 118] | 0.01 to 0.5 (≈ 0.00595 to 0.298 µM) | 2 to 4 (≈ 1.19 to 2.38 µM) | 1 to 2 (≈ 0.595 to 1.19 µM) | 0.5 to 1 (≈ 0.298 to 0.595 µM) | 0.01 to 0.5 (≈ 0.00595 to 0.298 µM) | 0.01 to 0.5 (≈ 0.00595 to 0.298 µM) | 1 to 2 (≈ 0.595 to 1.19 µM) | 1 to 2 (≈ 0.595 to 1.19 µM) | 2 to 4 (≈ 1.19 to 2.38 µM) | > 16 | 1 to 2 (≈ 0.595 to 1.19 µM) | – | – | – | – | – | – | – | – | – | –
2 | CNCCOc1ccc(C(=O)NC(=O)C[C@@H]2NC(=O)[C@H](NC(=O)[C@@H](CC(C)C)NC)[C@H](O)c3ccc(c(Cl)c3)Oc3cc4cc(c3O[C@@H]3O[C@H](CO)[C@@H](O)[C@H](O)[C@H]3O[C@H]3C[C@](C)(N)[C@H](O)[C@H](C)O3)Oc3ccc(cc3Cl)[C@@H](O)[C@@H]3NC(=O)[C@H](NC(=O)[C@@H]4NC2=O)c2ccc(O)c(c2)-c2c(O)cc(O)cc2[C@@H](C(=O)NC2C4CC5CC(C4)CC2C5)NC3=O)cc1OCCNC (stereo partly drawn) [Compound 152] | – | – | – | – | – | – | – | – | – | – | – | > 16 | 0.01 to 0.5 | 0.01 to 0.5 | 0.01 to 0.5 | 0.01 to 0.5 | 0.01 to 0.5 | 0.01 to 0.5 | 0.01 to 0.5 | 1 to 2 | MIC [1, 12]: 0.01 to 0.5 µg/mL; MIC [11, 12]: 4 to 8 µg/mL
3 | CN[C@H](CC(C)C)C(=O)N[C@H]1C(=O)N[C@@H](CC(=O)NS(=O)(=O)c2ccc(OCCOCCOC)cc2)C(=O)N[C@H]2C(=O)N[C@H]3C(=O)N[C@H](C(=O)N[C@H](C(=O)NC4C5CC6CC(C5)CC4C6)c4cc(O)cc(O)c4-c4cc3ccc4O)[C@H](O)c3ccc(c(Cl)c3)Oc3cc2cc(c3O[C@@H]2O[C@H](CN)[C@@H](O)[C@H](O)[C@H]2O)Oc2ccc(cc2Cl)[C@H]1O (stereo partly drawn) [Compound 102] | 0.01 to 0.5 (≈ 0.00589 to 0.295 µM) | 2 to 4 (≈ 1.18 to 2.36 µM) | 0.01 to 0.5 (≈ 0.00589 to 0.295 µM) | 0.01 to 0.5 (≈ 0.00589 to 0.295 µM) | 0.01 to 0.5 (≈ 0.00589 to 0.295 µM) | 0.01 to 0.5 (≈ 0.00589 to 0.295 µM) | 0.01 to 0.5 (≈ 0.00589 to 0.295 µM) | 0.01 to 0.5 (≈ 0.00589 to 0.295 µM) | 0.01 to 0.5 (≈ 0.00589 to 0.295 µM) | 0.5 to 1 (≈ 0.295 to 0.589 µM) | 0.5 to 1 (≈ 0.295 to 0.589 µM) | – | – | – | – | – | – | – | – | – | –
4 | CN[C@H](CC(C)C)C(=O)N[C@H]1C(=O)N[C@@H](CC(=O)NC(=O)c2ccc(OCCCN)c(OCCCN)c2)C(=O)N[C@H]2C(=O)N[C@H]3C(=O)N[C@H](C(=O)N[C@H](C(=O)NC4C5CC6CC(C5)CC4C6)c4cc(O)cc(O)c4-c4cc3ccc4O)[C@H](O)c3ccc(c(Cl)c3)Oc3cc2cc(c3O[C@@H]2O[C@H](CO)[C@@H](O)[C@H](O)[C@H]2O)Oc2ccc(cc2Cl)[C@H]1O (stereo partly drawn) [Compound 163] | – | – | – | – | – | – | – | – | – | – | – | > 16 | 1 to 2 | 1 to 2 | 0.01 to 0.5 | 0.5 to 1 | 0.01 to 0.5 | 1 to 2 | 1 to 2 | 1 to 2 | MIC [1, 12]: 0.5 to 1 µg/mL; MIC [11, 12]: 4 to 8 µg/mL
5 | CNCCOc1ccc(C(=O)NC(=O)C[C@@H]2NC(=O)[C@H](NC(=O)[C@@H](CC(C)C)NC)[C@H](O)c3ccc(c(Cl)c3)Oc3cc4cc(c3O[C@@H]3O[C@H](CO)[C@@H](O)[C@H](O)[C@H]3O[C@H]3C[C@](C)(N)[C@H](O)[C@H](C)O3)Oc3ccc(cc3Cl)[C@@H](O)[C@@H]3NC(=O)[C@H](NC(=O)[C@@H]4NC2=O)c2ccc(O)c(c2)-c2c(O)cc(O)cc2[C@@H](C(=O)NC2C4CC5CC(C4)CC2C5)NC3=O)cc1 (stereo partly drawn) [Compound 67] | – | – | – | – | – | – | – | – | – | – | – | 4 to 8 | 1 to 2 | 0.01 to 0.5 | 0.01 to 0.5 | 0.01 to 0.5 | 0.01 to 0.5 | 0.01 to 0.5 | 0.01 to 0.5 | 1 to 2 | MIC [11, 12]: 1 to 2 µg/mL
6 | CNCCOc1ccc(C(=O)NC(=O)C[C@@H]2NC(=O)[C@H](NC(=O)[C@@H](CC(C)C)NC)[C@H](O)c3ccc(c(Cl)c3)Oc3cc4cc(c3O[C@@H]3O[C@H](CO)[C@@H](O)[C@H](O)[C@H]3O)Oc3ccc(cc3Cl)[C@@H](O)[C@@H]3NC(=O)[C@H](NC(=O)[C@@H]4NC2=O)c2ccc(O)c(c2)-c2c(O)cc(O)cc2[C@@H](C(=O)NC2C4CC5CC(C4)CC2C5)NC3=O)cc1OCCNC (stereo partly drawn) [Compound 160] | – | – | – | – | – | – | – | – | – | – | – | > 16 | 0.5 to 1 | 0.5 to 1 | 0.01 to 0.5 | 0.01 to 0.5 | 0.01 to 0.5 | 1 to 2 | 1 to 2 | 1 to 2 | MIC [1, 12]: 0.5 to 1 µg/mL; MIC [11, 12]: 4 to 8 µg/mL
7 | CCCCCCCCCC(=O)NC(=O)C[C@@H]1NC(=O)[C@H](NC(=O)[C@@H](CC(C)C)NC)[C@H](O)c2ccc(c(Cl)c2)Oc2cc3cc(c2O[C@@H]2O[C@H](CO)[C@@H](O)[C@H](O)[C@H]2O[C@H]2C[C@](C)(N)[C@H](O)[C@H](C)O2)Oc2ccc(cc2Cl)[C@@H](O)[C@@H]2NC(=O)[C@H](NC(=O)[C@@H]3NC1=O)c1ccc(O)c(c1)-c1c(O)cc(O)cc1[C@@H](C(=O)NC1C3CC4CC(C3)CC1C4)NC2=O (stereo partly drawn) [Compound 43] | 0.01 to 0.5 (≈ 0.00576 to 0.288 µM) | 1 to 2 (≈ 0.576 to 1.15 µM) | 0.01 to 0.5 (≈ 0.00576 to 0.288 µM) | 0.01 to 0.5 (≈ 0.00576 to 0.288 µM) | 0.01 to 0.5 (≈ 0.00576 to 0.288 µM) | 0.01 to 0.5 (≈ 0.00576 to 0.288 µM) | 0.01 to 0.5 (≈ 0.00576 to 0.288 µM) | 0.5 to 1 (≈ 0.288 to 0.576 µM) | 0.01 to 0.5 (≈ 0.00576 to 0.288 µM) | 1 to 2 (≈ 0.576 to 1.15 µM) | 0.01 to 0.5 (≈ 0.00576 to 0.288 µM) | – | – | – | – | – | – | – | – | – | –
8 | CCCCOc1ccc(S(=O)(=O)NC(=O)C[C@@H]2NC(=O)[C@H](NC(=O)[C@@H](CC(C)C)NC)[C@H](O)c3ccc(c(Cl)c3)Oc3cc4cc(c3O[C@@H]3O[C@H](CN)[C@@H](O)[C@H](O)[C@H]3O)Oc3ccc(cc3Cl)[C@@H](O)[C@@H]3NC(=O)[C@H](NC(=O)[C@@H]4NC2=O)c2ccc(O)c(c2)-c2c(O)cc(O)cc2[C@@H](C(=O)NC2C4CC5CC(C4)CC2C5)NC3=O)cc1 (stereo partly drawn) [Compound 99] | 0.5 to 1 (≈ 0.303 to 0.606 µM) | 0.5 to 1 (≈ 0.303 to 0.606 µM) | 0.01 to 0.5 (≈ 0.00606 to 0.303 µM) | 0.01 to 0.5 (≈ 0.00606 to 0.303 µM) | 0.01 to 0.5 (≈ 0.00606 to 0.303 µM) | 0.01 to 0.5 (≈ 0.00606 to 0.303 µM) | 0.01 to 0.5 (≈ 0.00606 to 0.303 µM) | 0.01 to 0.5 (≈ 0.00606 to 0.303 µM) | 0.01 to 0.5 (≈ 0.00606 to 0.303 µM) | 0.5 to 1 (≈ 0.303 to 0.606 µM) | 0.01 to 0.5 (≈ 0.00606 to 0.303 µM) | – | – | – | – | – | – | – | – | – | –
